The conditions of data set [1]: Crystal; DTA.
Data set [2] in a line: Molar enthalpy of transition or fusion. The conditions noted are these: Crystal; DSC.

± gives the expanded uncertainty stated by the source.

For `Nc1ccc(Oc2ccc(N)cc2)cc1` [4,4'-diaminodiphenyl ether], the Normal melting temperature in data set [1] stood at 189.52 ± 0.39 °C. Further, the “Molar enthalpy of transition or fusion” value in data set [2] is 9.05 ± 0.406 kcal/mol.

Source of the values: the NIST ThermoML archive (doi:10.1016/j.fluid.2013.07.010).
